Assay results published in US10597388B2, “Pyridazinone herbicides” (FMC CORPORATION, priority 2014, dated 2020).

Legend:
Assay type in all cases: in vivo
[1] = system: velvetleaf (Abutilon theophrasti); experiment: Test C greenhouse herbicide test, pre- and postemergence
Summary of the method: (§1)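 Pre- and postemergence greenhouse screen; values are visual control ratings, 0 meaning no effect and 100 complete kill, assigned relative to untreated plants after 13 to 15 d.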

[2] = system: galium (catchweed bedstraw, Galium aparine); experiment: as above
Summary of the method: as §1

[3] = system: nutsedge, yellow (yellow nutsedge, Cyperus esculentus); experiment: as above
Summary of the method: as §1

[4] = system: oilseed rape (Brassica napus); experiment: as above
Summary of the method: as §1

[5] = system: ragweed (common ragweed, Ambrosia elatior); experiment: Test A greenhouse herbicide test, pre- and postemergence
Summary of the method: (§2)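 Seeds in loam–sand blend received a preemergence directed soil spray; plants at 2–10 cm, one- to two-leaf stage, received postemergence sprays. Compounds in a non-phytotoxic solvent with surfactant. After about 10 d in a greenhouse, injury rated visually versus untreated controls on a 0–100 scale (100 = complete control).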

[6] = system: corn (Zea mays); experiment: as above; details: Postemergence
Summary of the method: as §2

[7] = system: ryegrass, Italian (Italian ryegrass, Lolium multiflorum); experiment: as above
Summary of the method: as §2

[8] = system: kochia (Kochia scoparia); experiment: as above
Summary of the method: as §2

[9] = system: wheat (Triticum aestivum); experiment: as above; details: Postemergence
Summary of the method: as §2

[10] = system: foxtail, giant (giant foxtail, Setaria faberii); experiment: as above
Summary of the method: as §2

[11] = system: pigweed (Amaranthus retroflexus); experiment: as above
Summary of the method: as §2

[12] = Postemergence, 31 g ai/ha, scale 0 to 100 (0 no effect, 100 complete control)
[13] = Postemergence, 125 g ai/ha, scale 0 to 100, 0 is no effect, 100 is complete control
[14] = Postemergence, 250 g ai/ha, scale 0 to 100, 0 no effect, 100 complete control, 13 to 15 d
[15] = Preemergence, 31 g ai/ha, scale 0 to 100, 0 is no effect, 100 is complete control
[16] = Preemergence, 62 g ai/ha, scale 0 to 100, 0 is no effect, 100 is complete control
[17] = Preemergence, 125 g ai/ha, scale 0 to 100, 0 is no effect, 100 is complete control
[18] = Preemergence, 250 g ai/ha, scale 0 to 100 (0 no effect, 100 complete control)
[19] = Postemergence, 125 g ai/ha, 0 to 100 scale where 0 is no effect and 100 is complete control
[20] = Postemergence, 500 g ai/ha, visual rating after approx. 10 d, 0 to 100 scale (0 no effect, 100 complete control)
[21] = Preemergence, 125 g ai/ha, 0 to 100 scale where 0 is no effect and 100 is complete control
[22] = Preemergence, 500 g ai/ha, 0 to 100 scale where 0 is no effect and 100 is complete control
[23] = 125 g ai/ha, 0 to 100 scale where 0 is no effect and 100 is complete control
[24] = 500 g ai/ha, visual rating after approx. 10 d, 0 to 100 scale (0 no effect, 100 complete control)
[25] = Postemergence, 62 g ai/ha, 0 to 100 scale (0 no effect, 100 complete control)
[26] = postemergence, 125 g ai/ha, scale 0 to 100, 0 no effect, 100 complete control

Cc1ccc2ccccc2c1-c1c(O)c(Cl)nn(C)c1=O [Compound 125]
Plant response rating, Velvetleaf [1, 12]: 85 | Plant response rating, Velvetleaf [1, 13]: 95 | Plant response rating, Velvetleaf [1, 14]: 98 | Plant response rating, Velvetleaf [1, 15]: 95 | Plant response rating, Velvetleaf [1, 16]: 100 | Plant response rating, Velvetleaf [1, 17]: 100 | Velvetleaf plant response rating [1, 18]: 100 | Plant response rating, Galium [2, 12]: 95 | Plant response rating, Galium [2, 13]: 95 | Plant response rating, Galium [2, 14]: 95 | Plant response rating, Galium [2, 15]: 100 | Plant response rating, Galium [2, 16]: 100 | Plant response rating, Galium [2, 17]: 100 | Galium plant response rating [2, 18]: 100 | Plant response rating, Nutsedge, Yellow [3, 12]: 35 | Plant response rating, Nutsedge, Yellow [3, 13]: 85 | Plant response rating, Nutsedge, Yellow [3, 14]: 90 | Plant response rating, Nutsedge, Yellow [3, 15]: 65 | Plant response rating, Nutsedge, Yellow [3, 16]: 95 | Plant response rating, Nutsedge, Yellow [3, 17]: 95 | Nutsedge, Yellow plant response rating [3, 18]: 90 | Plant response rating, Oilseed Rape [4, 12]: 0 | Plant response rating, Oilseed Rape [4, 13]: 5 | Plant response rating, Oilseed Rape [4, 14]: 10 | Plant response rating, Oilseed Rape [4, 15]: 85 | Plant response rating, Oilseed Rape [4, 16]: 0 | Plant response rating, Oilseed Rape [4, 17]: 85 | Oilseed Rape plant response rating [4, 18]: 100 | Plant response rating, Ragweed [5, 19]: 90 | Plant response rating, Ragweed [5, 20]: 100 | Ragweed plant response rating [5, 21]: 80 | Plant response rating, Ragweed [5, 22]: 90 | Plant response rating, Corn [6, 23]: 20 | Plant response rating, Corn [6, 24]: 30 | Plant response rating, Ryegrass, Italian [7, 19]: 100 | Plant response rating, Ryegrass, Italian [7, 20]: 100 | Ryegrass, Italian plant response rating [7, 21]: 100 | Plant response rating, Ryegrass, Italian [7, 22]: 100 | Plant response rating, Kochia [8, 19]: 100 | Plant response rating, Kochia [8, 20]: 100 | Kochia plant response rating [8, 21]: 60 | Plant response rating, Kochia [8, 22]: 90 | Plant response rating, Wheat [9, 23]: 50 | Plant response rating, Wheat [9, 24]: 80 | Plant response rating, Foxtail, Giant [10, 19]: 90 | Plant response rating, Foxtail, Giant [10, 20]: 90 | Foxtail, Giant plant response rating [10, 21]: 90 | Plant response rating, Foxtail, Giant [10, 22]: 100 | Plant response rating, Pigweed [11, 19]: 100 | Plant response rating, Pigweed [11, 20]: 100 | Pigweed plant response rating [11, 21]: 100 | Plant response rating, Pigweed [11, 22]: 100

Cc1nn(C)c(=O)c(-c2cccc3ccc(C#N)cc23)c1O [Compound 127]
Plant response rating, Velvetleaf [1, 12]: 20 | Velvetleaf plant response rating [1, 25]: 30 | Plant response rating, Velvetleaf [1, 14]: 55 | Velvetleaf plant response rating [1, 26]: 25 | Plant response rating, Galium [2, 12]: 75 | Galium plant response rating [2, 25]: 80 | Plant response rating, Galium [2, 14]: 90 | Galium plant response rating [2, 26]: 85 | Plant response rating, Nutsedge, Yellow [3, 12]: 10 | Nutsedge, Yellow plant response rating [3, 25]: 35 | Plant response rating, Nutsedge, Yellow [3, 14]: 70 | Nutsedge, Yellow plant response rating [3, 26]: 60 | Plant response rating, Oilseed Rape [4, 12]: 0 | Oilseed Rape plant response rating [4, 25]: 0 | Plant response rating, Oilseed Rape [4, 14]: 100 | Oilseed Rape plant response rating [4, 26]: 25 | Plant response rating, Ragweed [5, 19]: 60 | Plant response rating, Ragweed [5, 20]: 80 | Ragweed plant response rating [5, 21]: 30 | Plant response rating, Ragweed [5, 22]: 70 | Plant response rating, Corn [6, 23]: 0 | Plant response rating, Corn [6, 24]: 10 | Plant response rating, Ryegrass, Italian [7, 19]: 80 | Plant response rating, Ryegrass, Italian [7, 20]: 90 | Ryegrass, Italian plant response rating [7, 21]: 60 | Plant response rating, Ryegrass, Italian [7, 22]: 90 | Plant response rating, Kochia [8, 19]: 70 | Plant response rating, Kochia [8, 20]: 80 | Kochia plant response rating [8, 21]: 0 | Plant response rating, Kochia [8, 22]: 90 | Plant response rating, Wheat [9, 23]: 0 | Plant response rating, Wheat [9, 24]: 20 | Plant response rating, Foxtail, Giant [10, 19]: 10 | Plant response rating, Foxtail, Giant [10, 20]: 60 | Foxtail, Giant plant response rating [10, 21]: 50 | Plant response rating, Foxtail, Giant [10, 22]: 60 | Plant response rating, Pigweed [11, 19]: 90 | Plant response rating, Pigweed [11, 20]: 100 | Pigweed plant response rating [11, 21]: 70 | Plant response rating, Pigweed [11, 22]: 100

CC(=O)Oc1c(Br)nn(C)c(=O)c1-c1c(C)ccc2ccccc12 [Compound 129]
Plant response rating, Velvetleaf [1, 12]: 85 | Velvetleaf plant response rating [1, 25]: 95 | Plant response rating, Velvetleaf [1, 14]: 100 | Plant response rating, Velvetleaf [1, 15]: 70 | Plant response rating, Velvetleaf [1, 16]: 85 | Plant response rating, Velvetleaf [1, 17]: 98 | Velvetleaf plant response rating [1, 18]: 98 | Velvetleaf plant response rating [1, 26]: 95 | Plant response rating, Galium [2, 12]: 95 | Galium plant response rating [2, 25]: 100 | Plant response rating, Galium [2, 14]: 100 | Plant response rating, Galium [2, 15]: 95 | Plant response rating, Galium [2, 16]: 98 | Plant response rating, Galium [2, 17]: 100 | Galium plant response rating [2, 18]: 98 | Galium plant response rating [2, 26]: 100 | Plant response rating, Nutsedge, Yellow [3, 12]: 60 | Nutsedge, Yellow plant response rating [3, 25]: 75 | Plant response rating, Nutsedge, Yellow [3, 14]: 95 | Plant response rating, Nutsedge, Yellow [3, 15]: 55 | Plant response rating, Nutsedge, Yellow [3, 16]: 85 | Plant response rating, Nutsedge, Yellow [3, 17]: 90 | Nutsedge, Yellow plant response rating [3, 18]: 95 | Nutsedge, Yellow plant response rating [3, 26]: 85 | Plant response rating, Oilseed Rape [4, 12]: 0 | Oilseed Rape plant response rating [4, 25]: 0 | Plant response rating, Oilseed Rape [4, 14]: 5 | Plant response rating, Oilseed Rape [4, 15]: 5 | Plant response rating, Oilseed Rape [4, 16]: 50 | Plant response rating, Oilseed Rape [4, 17]: 90 | Oilseed Rape plant response rating [4, 18]: 90 | Oilseed Rape plant response rating [4, 26]: 5 | Plant response rating, Ragweed [5, 19]: 100 | Plant response rating, Ragweed [5, 20]: 100 | Ragweed plant response rating [5, 21]: 90 | Plant response rating, Ragweed [5, 22]: 90 | Plant response rating, Corn [6, 23]: 10 | Plant response rating, Corn [6, 24]: 80 | Plant response rating, Ryegrass, Italian [7, 19]: 100 | Plant response rating, Ryegrass, Italian [7, 20]: 100 | Ryegrass, Italian plant response rating [7, 21]: 100 | Plant response rating, Ryegrass, Italian [7, 22]: 100 | Plant response rating, Kochia [8, 19]: 70 | Plant response rating, Kochia [8, 20]: 90 | Kochia plant response rating [8, 21]: 70 | Plant response rating, Kochia [8, 22]: 90 | Plant response rating, Wheat [9, 23]: 20 | Plant response rating, Wheat [9, 24]: 80 | Plant response rating, Foxtail, Giant [10, 19]: 90 | Plant response rating, Foxtail, Giant [10, 20]: 100 | Foxtail, Giant plant response rating [10, 21]: 90 | Plant response rating, Foxtail, Giant [10, 22]: 100 | Plant response rating, Pigweed [11, 19]: 90 | Plant response rating, Pigweed [11, 20]: 100 | Pigweed plant response rating [11, 21]: 100 | Plant response rating, Pigweed [11, 22]: 100
